Experimental data taken from the NIST ThermoML archive (doi:10.1021/je500498m).

Assay: xn = mol fraction of the nth substance listed
Settings: for speed of sound: 100 kPa, Sing-around technique in a fixed-path interferometer; for speed of sound / viscosity / mass density: Liquid; for viscosity / mass density: 101 kPa; for viscosity: Falling or rolling sphere viscometry; for mass density: Vibrating tube method; for surface tension liquid-gas: 294.4 K, Pendant drop shape

CCCCCCCCCCCCCCCC [hexadecane] + Cc1ccccc1
Settings	mass density [kg/m3]	speed of sound [m/s]	viscosity [mPa·s]
293.15 K, x2 = 0	773.49	1357.3	3.44
293.15 K, x2 = 0.1002	776.71	1352.9	3.03
293.15 K, x2 = 0.2	780.38	1348.1	2.64
293.15 K, x2 = 0.3018	784.83	1343.1	2.28
293.15 K, x2 = 0.4001	789.87	1337.2	1.96
293.15 K, x2 = 0.5	796.1	1332	1.66
293.15 K, x2 = 0.6001	803.76	1326.5	1.4
293.15 K, x2 = 0.7005	813.44	1321.5	1.16
293.15 K, x2 = 0.8001	825.95	1318	0.94
293.15 K, x2 = 0.8999	842.77	1318	0.76
303.15 K, x2 = 0	766.55	1320	2.72
303.15 K, x2 = 0.1002	769.7	1315.5	2.42
303.15 K, x2 = 0.2	773.29	1310.6	2.14
303.15 K, x2 = 0.3018	777.64	1305.5	1.87
303.15 K, x2 = 0.4001	782.56	1299.4	1.63
303.15 K, x2 = 0.5	788.63	1293.9	1.4
303.15 K, x2 = 0.6001	796.11	1288	1.19
303.15 K, x2 = 0.7005	805.54	1282.4	1
303.15 K, x2 = 0.8001	817.73	1278.2	0.82
303.15 K, x2 = 0.8999	834.11	1277	0.67
313.15 K, x2 = 0	759.63	1283.3	–
313.15 K, x2 = 0.1002	762.7	1278.7	–
313.15 K, x2 = 0.2	766.2	1273.6	–
313.15 K, x2 = 0.3018	770.44	1268.4	–
313.15 K, x2 = 0.4001	775.24	1262.1	–
313.15 K, x2 = 0.5	781.15	1256.2	–
313.15 K, x2 = 0.6001	788.42	1250	–
313.15 K, x2 = 0.7005	797.59	1243.8	–
313.15 K, x2 = 0.8001	809.46	1238.8	–
313.15 K, x2 = 0.8999	825.38	1236.4	–
323.15 K, x2 = 0	752.71	1247.3	1.82
323.15 K, x2 = 0.1002	755.7	1242.6	1.65
323.15 K, x2 = 0.2	759.11	1237.4	1.49
323.15 K, x2 = 0.3018	763.23	1231.9	1.33
323.15 K, x2 = 0.4001	767.89	1225.4	1.18
323.15 K, x2 = 0.5	773.64	1219.2	1.04
323.15 K, x2 = 0.6001	780.71	1212.5	0.9
323.15 K, x2 = 0.7005	789.6	1205.7	0.77
323.15 K, x2 = 0.8001	801.12	1199.9	0.64
323.15 K, x2 = 0.8999	816.6	1196.3	0.52
333.15 K, x2 = 0	745.79	1212	1.54
333.15 K, x2 = 0.1002	748.7	1207.1	1.4
333.15 K, x2 = 0.2	752	1201.7	1.27
333.15 K, x2 = 0.3018	756	1196	1.15
333.15 K, x2 = 0.4001	760.53	1189.2	1.03
333.15 K, x2 = 0.5	766.1	1182.7	0.9
333.15 K, x2 = 0.6001	772.93	1175.6	0.79
333.15 K, x2 = 0.7005	781.29	1168.2	0.67
333.15 K, x2 = 0.8001	792.74	1161.7	0.56
333.15 K, x2 = 0.8999	807.75	1156.7	0.47
343.15 K, x2 = 0	738.9	–	1.31
343.15 K, x2 = 0.1002	741.7	–	1.21
343.15 K, x2 = 0.2	744.9	–	1.1
343.15 K, x2 = 0.3018	748.9	–	1
343.15 K, x2 = 0.4001	753.2	–	0.89
343.15 K, x2 = 0.5	758.6	–	0.8
343.15 K, x2 = 0.6001	765.2	–	0.69
343.15 K, x2 = 0.7005	773.6	–	0.6
343.15 K, x2 = 0.8001	784.3	–	0.51
343.15 K, x2 = 0.8999	798.8	–	0.43
353.15 K, x2 = 0	731.8	–	1.13
353.15 K, x2 = 0.1002	734.5	–	1.05
353.15 K, x2 = 0.2	737.7	–	0.96
353.15 K, x2 = 0.3018	741.4	–	0.87
353.15 K, x2 = 0.4001	745.7	–	0.79
353.15 K, x2 = 0.5	750.9	–	0.7
353.15 K, x2 = 0.6001	757.2	–	0.61
353.15 K, x2 = 0.7005	765.3	–	0.54
353.15 K, x2 = 0.8001	775.7	–	0.46
353.15 K, x2 = 0.8999	789.7	–	0.39
363.15 K, x2 = 0	724.7	–	0.99
363.15 K, x2 = 0.1002	727.3	–	0.92
363.15 K, x2 = 0.2	730.4	–	0.85
363.15 K, x2 = 0.3018	733.9	–	0.77
363.15 K, x2 = 0.4001	738	–	0.7
363.15 K, x2 = 0.5	743.1	–	0.62
363.15 K, x2 = 0.6001	749.2	–	0.55
363.15 K, x2 = 0.7005	756.9	–	0.48
363.15 K, x2 = 0.8001	767	–	0.4
363.15 K, x2 = 0.8999	780.4	–	0.33
373.15 K, x2 = 0	717.5	–	0.87
373.15 K, x2 = 0.1002	720	–	0.81
373.15 K, x2 = 0.2	722.9	–	0.76
373.15 K, x2 = 0.3018	726.3	–	0.69
373.15 K, x2 = 0.4001	730.3	–	0.64
373.15 K, x2 = 0.5	735.1	–	0.56
373.15 K, x2 = 0.6001	741	–	–
373.15 K, x2 = 0.7005	748.5	–	–
373.15 K, x2 = 0.8001	758	–	–

Settings	surface tension liquid-gas [mN/m]
x2 = 0	27.3
x2 = 0.4001	27.3
x2 = 0.5	27.5
x2 = 0.6001	27.6
x2 = 0.7006	27.7
x2 = 0.8001	27.8
x2 = 0.8999	28
